This is an account of results in ChEMBL document CHEMBL3627709, “Discovery of a Novel, Potent Spirocyclic Series of γ-Secretase Inhibitors” (J Med Chem, 2015).

In data set [1] the target is T1, Cytochrome P450 3A4 (Homo sapiens, UniProt P08684). Kind of data set: Inhibition of CYP3A4 (unknown origin) co-incubated with substrate and protein. In kind it is ADME.
Data set [2] deals with T1, Cytochrome P450 3A4. Kind of data set: Inhibition of CYP3A4 (unknown origin) preincubated with protein for 30 mins followed by substrate addition. Format: ADME.
Data set [3] concerns the target T2, Cytochrome P450 2D6 (Homo sapiens, UniProt P10635). Kind of data set: Inhibition of CYP2D6 (unknown origin) co-incubated with substrate and protein. Format: ADME.
The target of data set [4] is T2, Cytochrome P450 2D6. The experiment in a line: Inhibition of CYP2D6 (unknown origin) preincubated with protein for 30 mins followed by substrate addition. In kind it is ADME.
In data set [5] the target is T3, Cytochrome P450 2C9 (Homo sapiens, UniProt P11712). Kind of data set: Inhibition of CYP2C9 (unknown origin) co-incubated with substrate and protein. Format: ADME.
T3 sequence (P11712 whole entry): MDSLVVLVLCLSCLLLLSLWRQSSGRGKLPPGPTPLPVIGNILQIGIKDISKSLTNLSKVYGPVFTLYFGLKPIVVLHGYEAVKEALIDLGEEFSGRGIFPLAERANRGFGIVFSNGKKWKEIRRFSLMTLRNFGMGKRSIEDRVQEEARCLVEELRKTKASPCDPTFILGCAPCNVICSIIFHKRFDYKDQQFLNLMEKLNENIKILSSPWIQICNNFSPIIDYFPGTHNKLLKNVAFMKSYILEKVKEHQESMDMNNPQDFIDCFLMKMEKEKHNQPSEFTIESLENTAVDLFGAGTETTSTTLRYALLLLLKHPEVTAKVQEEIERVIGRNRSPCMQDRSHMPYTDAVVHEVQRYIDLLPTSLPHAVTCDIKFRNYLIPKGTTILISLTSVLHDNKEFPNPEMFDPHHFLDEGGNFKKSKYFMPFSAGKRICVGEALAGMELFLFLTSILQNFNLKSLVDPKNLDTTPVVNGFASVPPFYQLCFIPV
In data set [6] the target is T3, Cytochrome P450 2C9. The experiment in a line: Inhibition of CYP2C9 (unknown origin) preincubated with protein for 30 mins followed by substrate addition. Format: ADME.
A short description of data set [7]: (§1) AUC (0 to 6 hrs) in Sprague-Dawley rat at 10 mg/kg, po by LC-MS/MS analysis. Also noted: time < 6 hr, dose 10 mg/kg, route oral. Conditions: Sprague-Dawley, in vivo. Format: ADME, organism-based.
Data set [8] is described as follows: Ratio of drug level in brain to plasma in Sprague-Dawley rat at 10 mg/kg, po. In kind it is ADME, organism-based. The following applies: brain and plasma, read-out: BPR.
Data set [9] deals with Rattus norvegicus. The experiment in a line: Antialzheimer activity in Sprague-Dawley rat assessed as reduction of total amylod beta level at 10 mg/kg, po after 3 hrs by immunoassay relative to vehicle-treated control. Format: functional, organism-based.
The target in data set [10] is Voltage-gated inwardly rectifying potassium channel KCNH2 (Homo sapiens, UniProt Q12809). Kind of data set: Inhibition of human ERG.
Chain of Voltage-gated inwardly rectifying potassium channel KCNH2 (Q12809 whole entry): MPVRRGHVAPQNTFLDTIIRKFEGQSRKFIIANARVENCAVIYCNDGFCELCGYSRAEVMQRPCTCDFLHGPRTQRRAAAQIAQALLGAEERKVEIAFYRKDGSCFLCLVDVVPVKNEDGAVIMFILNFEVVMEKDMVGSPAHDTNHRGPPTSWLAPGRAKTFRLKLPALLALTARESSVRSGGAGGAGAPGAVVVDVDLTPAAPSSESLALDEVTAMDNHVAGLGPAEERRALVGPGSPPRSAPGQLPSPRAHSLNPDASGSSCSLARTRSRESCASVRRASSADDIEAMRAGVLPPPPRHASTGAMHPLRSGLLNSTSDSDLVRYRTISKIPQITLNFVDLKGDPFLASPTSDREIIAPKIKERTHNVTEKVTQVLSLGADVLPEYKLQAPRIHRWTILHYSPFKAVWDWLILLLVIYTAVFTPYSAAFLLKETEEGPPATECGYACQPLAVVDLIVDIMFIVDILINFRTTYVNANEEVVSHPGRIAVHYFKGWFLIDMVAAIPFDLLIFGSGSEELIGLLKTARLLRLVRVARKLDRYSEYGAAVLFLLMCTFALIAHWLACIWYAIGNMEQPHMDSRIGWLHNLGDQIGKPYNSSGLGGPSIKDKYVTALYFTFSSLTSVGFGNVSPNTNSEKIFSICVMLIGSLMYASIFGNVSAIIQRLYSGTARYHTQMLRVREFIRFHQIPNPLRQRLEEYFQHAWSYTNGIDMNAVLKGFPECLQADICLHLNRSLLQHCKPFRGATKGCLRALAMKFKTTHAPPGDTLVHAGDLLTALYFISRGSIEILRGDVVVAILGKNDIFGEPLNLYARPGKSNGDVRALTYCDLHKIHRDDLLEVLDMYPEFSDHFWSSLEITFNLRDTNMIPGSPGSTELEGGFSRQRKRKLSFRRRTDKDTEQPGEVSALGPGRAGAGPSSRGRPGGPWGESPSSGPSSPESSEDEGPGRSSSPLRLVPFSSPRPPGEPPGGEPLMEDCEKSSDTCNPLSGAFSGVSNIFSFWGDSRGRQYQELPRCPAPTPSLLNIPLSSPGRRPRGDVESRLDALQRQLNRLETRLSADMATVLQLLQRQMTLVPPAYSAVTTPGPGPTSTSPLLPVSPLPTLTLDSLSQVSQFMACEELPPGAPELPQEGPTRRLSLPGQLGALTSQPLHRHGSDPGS
Data set [11] has as its target Gamma-secretase. Kind of data set: Inhibition of gamma-secretase in HEK293 cell membranes using SPC99-Lon as substrate assessed as formation of amyloid beta 40 after 1 hr by electrochemiluminescence-based immunoassay. Also noted: species or system Homo sapiens.
In data set [12] the target is Gamma-secretase. The experiment in a line: Inhibition of gamma-secretase in HEK293 cells using human APP Swedish/London double mutant as substrate assessed as formation of amyloid beta 40 after 5 to 6 hrs by sandwich immunoassay. In kind it is cell-based.
Data set [13] concerns the target Gamma-secretase. The experiment in a line: Inhibition of gamma-secretase in HEK293 cells using human APP Swedish/London double mutant as substrate assessed as formation of amyloid beta 42 after 5 to 6 hrs by sandwich immunoassay. In kind it is cell-based.
Data set [14] deals with Rattus norvegicus. Described as §1. In kind it is ADME, organism-based. Also noted: time < 6 hr, dose 10 mg/kg, route oral. The following applies: in vivo, 6 h, BLD = below limit of detection.
The species named for another data set is Homo sapiens. The experiment in a line: Selectivity ratio of IC50 for human presenilin-2 to IC50 for human presenilin-1.
In data set [15] the test system is Rattus norvegicus. Kind of data set: Antialzheimer activity in Sprague-Dawley rat assessed as reduction of total amylod beta level in plasma at 10 mg/kg, po after 3 hrs by immunoassay relative to vehicle-treated control. Format: functional. Also noted: scale not given: the % may be the effect or the level left.
The test system of data set [16] is Rattus norvegicus. Kind of data set: Antialzheimer activity in Sprague-Dawley rat assessed as reduction of total amylod beta level in cerebrospinal fluid at 10 mg/kg, po after 3 hrs by immunoassay relative to vehicle-treated control. In kind it is functional. Also noted: scale not given: the % may be the effect or the level left.

The source made the active and inactive calls. The calls are words filed in the database; no cut-off is given here.

T2 sequence (P10635 whole entry): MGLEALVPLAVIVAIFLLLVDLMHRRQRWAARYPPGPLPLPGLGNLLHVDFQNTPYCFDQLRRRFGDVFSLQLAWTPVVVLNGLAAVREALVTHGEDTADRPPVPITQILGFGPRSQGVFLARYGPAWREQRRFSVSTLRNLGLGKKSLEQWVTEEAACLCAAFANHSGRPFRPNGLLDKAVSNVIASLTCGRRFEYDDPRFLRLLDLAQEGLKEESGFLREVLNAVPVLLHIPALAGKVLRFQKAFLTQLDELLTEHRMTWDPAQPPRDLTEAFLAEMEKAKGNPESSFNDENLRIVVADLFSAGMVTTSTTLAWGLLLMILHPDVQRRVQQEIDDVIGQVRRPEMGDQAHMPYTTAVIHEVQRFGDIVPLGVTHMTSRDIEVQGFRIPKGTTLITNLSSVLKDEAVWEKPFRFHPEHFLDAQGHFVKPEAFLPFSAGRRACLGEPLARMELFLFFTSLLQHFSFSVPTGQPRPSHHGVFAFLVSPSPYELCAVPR
T1 sequence (P08684 whole entry): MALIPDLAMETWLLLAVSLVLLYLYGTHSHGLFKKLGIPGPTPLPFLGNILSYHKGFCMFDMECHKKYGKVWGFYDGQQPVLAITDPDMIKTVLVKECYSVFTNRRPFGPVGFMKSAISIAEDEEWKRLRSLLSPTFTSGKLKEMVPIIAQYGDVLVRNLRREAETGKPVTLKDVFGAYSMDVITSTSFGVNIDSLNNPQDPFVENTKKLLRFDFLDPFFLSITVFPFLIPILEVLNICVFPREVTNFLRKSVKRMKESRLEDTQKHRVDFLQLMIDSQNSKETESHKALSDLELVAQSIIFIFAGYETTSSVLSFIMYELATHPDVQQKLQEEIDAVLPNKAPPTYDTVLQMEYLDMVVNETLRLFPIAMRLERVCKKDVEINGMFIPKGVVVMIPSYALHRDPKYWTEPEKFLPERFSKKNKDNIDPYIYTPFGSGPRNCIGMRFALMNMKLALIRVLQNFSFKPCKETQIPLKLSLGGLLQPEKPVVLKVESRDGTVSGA

A word on the IC50: it is the point on the concentration scale where inhibition reaches its midpoint. In the case of `O=S(=O)(N[C@@H]1CC[C@@]2(S(=O)(=O)c3ccc(Cl)cc3)c3c(F)ccc(F)c3OC[C@H]2C1)C(F)(F)F`, the IC50 was 9600 nM on Cytochrome P450 3A4 [1]; 3500 nM on Cytochrome P450 3A4 [2]; above 30000 nM on Cytochrome P450 2D6 [3]; above 30000 nM on Cytochrome P450 2D6 [4]; below 300 nM on Cytochrome P450 2C9 [5]; below 300 nM against Cytochrome P450 2C9 [6].

As a reminder, the AUC(0-t) is exposure summed from dosing to a finite time, without extrapolation to infinity. On to `O=S1(=O)CCC2(CCC[C@@]3(S(=O)(=O)c4ccc(Cl)cc4)c4c(F)ccc(F)c4OC[C@@H]23)CC1`, for which the AUC(0-t) at 6 h in data set [7] came to 3.31 µM·h. Further, the Kp in [8] worked out at 0.2. In addition, the result with Rattus norvegicus [9] was inactive. Also, in [10], the “inhibition (INH)” value was “Not Active”. Further, the IC50 on Cytochrome P450 3A4 [1], on Cytochrome P450 3A4 [2], on Cytochrome P450 2D6 [3], against Cytochrome P450 2D6 [4], on Cytochrome P450 2C9 [5] and at Cytochrome P450 2C9 [6] was above 20000 nM in each case.

As to `O=S(=O)(NC[C@@H]1OCC[C@@]2(S(=O)(=O)c3ccc(Cl)cc3)c3c(F)ccc(F)c3OC[C@@H]12)C(F)(F)F`, the IC50 at Cytochrome P450 3A4 [1] was above 30000 nM; against Cytochrome P450 3A4 [2], 21400 nM; on Cytochrome P450 2D6 [3], 17900 nM; against Cytochrome P450 2D6 [4], 30000 nM; at Cytochrome P450 2C9 [5], 2500 nM; at Cytochrome P450 2C9 [6], 4900 nM.

As for `O=S(=O)(c1ccc(Cl)cc1)C1(c2cc(F)ccc2F)CCCCC1`, the IC50 on Gamma-secretase [11] is 14.1 nM; at Gamma-secretase [12], 41 nM; at Gamma-secretase [13], 27 nM. Besides, the AUC result in the data set with Rattus norvegicus [14] is given as “BLD”. Also, the Ratio IC50 in the data set listed under Homo sapiens is 1. In the data set on Rattus norvegicus [9], the outcome was inactive.

As to `O=S(=O)(N1CC[C@]2(CCC[C@@]3(S(=O)(=O)c4ccc(Cl)cc4)c4c(F)ccc(F)c4OC[C@@H]23)C1)C(F)(F)F`, the IC50 on Gamma-secretase [11] was 23.3 nM; on Gamma-secretase [12], 13 nM; on Gamma-secretase [13] it was 8 nM; on Cytochrome P450 3A4 [1], above 30000 nM; on Cytochrome P450 3A4 [2], above 20000 nM; on Cytochrome P450 2D6 [3], above 30000 nM. The IC50 on Cytochrome P450 2D6 [4], on Cytochrome P450 2C9 [5] and against Cytochrome P450 2C9 [6] was above 30000 nM each time. The “inhibition (INH)” value in data set [10] is on record as “Not Active”.

In turn, `O=S(=O)(N[C@H]1CC[C@@](c2cc(F)ccc2F)(S(=O)(=O)c2ccc(Cl)cc2)CC1)C(F)(F)F` gave an area under the curve AUC(0-t) at 6 h in data set [7] of 2.35 µM·h. Besides, in data set [8], the Kp was 0.2. Besides, the Activity in the data set on Rattus norvegicus [15] amounted to 71%. The IC50 at Cytochrome P450 2D6 [3] was above 30000 nM; at Cytochrome P450 2D6 [4] it was above 30000 nM; at Cytochrome P450 2C9 [5] it was below 300 nM; on Cytochrome P450 2C9 [6], below 300 nM.

Consider `CC1(C)OCC2(CCC[C@@]3(S(=O)(=O)c4ccc(Cl)cc4)c4c(F)ccc(F)c4OC[C@@H]23)CO1`, for which the IC50 is 66.6 nM at Gamma-secretase [11], 33 nM on Gamma-secretase [12] and 12 nM on Gamma-secretase [13]. In addition, the “inhibition (INH)” value in data set [10] is “Not Active”.

For the compound `O=S(=O)(c1ccc(Cl)cc1)[C@@]12CCCC3(COC3)[C@@H]1COc1c(F)ccc(F)c12`, the IC50 at Gamma-secretase [11] stood at 10.1 nM; on Gamma-secretase [12] it was 13 nM; on Gamma-secretase [13], 7 nM. Further, in the data set with Rattus norvegicus [14], the AUC entry is “BLD”. Moreover, the “inhibition (INH)” value in [10] is given as “Not Active”.

On to `O=S(=O)(c1ccc(Cl)cc1)[C@@]12CCC[C@]3(CCOC3)[C@@H]1COc1c(F)ccc(F)c12` (stereo in doubt; (+)-14b), for which the IC50 stood at 142 nM at Gamma-secretase [11], 104 nM on Gamma-secretase [12] and 63 nM on Gamma-secretase [13].

For `O=C1OCC[C@]12CCC[C@@]1(S(=O)(=O)c3ccc(Cl)cc3)c3c(F)ccc(F)c3OC[C@@H]21`, the IC50 is 228 nM at Gamma-secretase [11]; above 30000 nM at Cytochrome P450 3A4 [1]; above 30000 nM against Cytochrome P450 3A4 [2]; above 30000 nM on Cytochrome P450 2D6 [3]; above 30000 nM against Cytochrome P450 2D6 [4]; above 30000 nM on Cytochrome P450 2C9 [5]. The IC50 against Cytochrome P450 2C9 [6] is above 30000 nM. Also, in data set [10], the “inhibition (INH)” value is recorded as “Not Active”.

With `O=S(=O)(c1ccc(Cl)cc1)[C@@]12CCC[C@]3(CCOC3)[C@@H]1COc1c(F)ccc(F)c12` (stereo in doubt; (-)-14b), the IC50 at Gamma-secretase [11] was 13.9 nM; on Gamma-secretase [12], 6 nM; at Gamma-secretase [13] it was 3 nM; on Cytochrome P450 3A4 [1] it was above 20000 nM; against Cytochrome P450 3A4 [2], above 20000 nM; at Cytochrome P450 2D6 [3], above 20000 nM. The IC50 on Cytochrome P450 2D6 [4], at Cytochrome P450 2C9 [5] and against Cytochrome P450 2C9 [6] was above 20000 nM in each case. Further, the Activity stood at 29% with Rattus norvegicus [15] and 10% with Rattus norvegicus [16]. The “inhibition (INH)” value in data set [10] is “Not Active”.

In the case of `O=S(=O)(c1ccc(Cl)cc1)[C@@]12CCCC3(CCSCC3)[C@@H]1COc1c(F)ccc(F)c12`, the IC50 worked out at 26.4 nM on Gamma-secretase [11], 17 nM on Gamma-secretase [12] and 5 nM on Gamma-secretase [13]. Also, in the data set with Rattus norvegicus [14], the AUC entry was “BLD”. Besides, the result in the data set on Rattus norvegicus [9] was inactive. Moreover, the “inhibition (INH)” value in data set [10] is recorded as “Not Active”.

In the case of `O=S(=O)(c1ccc(Cl)cc1)[C@@]12CCCC(CO)(CO)[C@@H]1COc1c(F)ccc(F)c12`, the IC50 on Gamma-secretase [11] is 251 nM; on Cytochrome P450 3A4 [1], 11000 nM; against Cytochrome P450 3A4 [2], 11500 nM; at Cytochrome P450 2D6 [3] it was above 30000 nM; on Cytochrome P450 2D6 [4] it was above 30000 nM; on Cytochrome P450 2C9 [5], 23400 nM. In addition, the IC50 against Cytochrome P450 2C9 [6] amounted to 21100 nM. In data set [10], the “inhibition (INH)” value is “Not Active”.
